Each molecule was assayed on tumor endothelial cells (CT26.CL25 colon cancer tumor) (assay: Colon CT26 ex vivo model of tumor angiogenesis). Settings: Mus musculus, CT26, 48 h, read-out: Cell death.
Format: cell-based
Method: This example describes a procedure to prepare a primary tumor angiogenesis model for assessing the efficacy of anti-cancer candidate agents.
1. The day before the experiment, spray all necessary tools with 70% ethanol and sterilize them under UV light overnight, including blade, dissecting and micro-dissecting scissors and […]. Place 24-well dishes at 4° C. to pre-chill plates and thaw Matrigel 24 hours before tumor dissection.
2. Spray 70% ethanol on working bench. Prepare two sterile petri dishes with 10 mL sterile PBS. Steps 3 and 4 are for mouse tumor models. For fresh human tumor, directly go to step 5.
3. Euthanize the tumor-bearing mice. Spray 70% ethanol on the mouse and remove the tumor using sterilized dissecting tools (avoid the fur). Rinse the tumor in petri dish with sterile PBS to remove ethanol and fur. Transfer the tumor to a new petri dish with PBS for dissection. Place the dish on ice.
4. Using pre-chilled sterile pipet tips to seed regular Matrigel in 24 well plates on ice. Matrigel (30 μL) is dropped in the middle of each well without touching the edge of the well (avoid introducing bubbles if possible).
5. Cut the tumor in halves using the sterile blade. Identify and isolate healthy tumor tissue that is not necrotic and is within the tumor capsule. Cut the healthy tumor tissue into small pieces. For instance, a suitable size for the tumor tissue is 0.5 mm (H)×0.5 mm (L)×0.3 mm (D) with a total volume of 0.075 mm^3.
6. Gently transfer and embed each tumor piece in the Matrigel drop in the 24-well plate. Place the embedded piece in the bottom and middle of each Matrigel drop. Keep the plate on ice all the time.
7. After seeding the tumor pieces, plates are incubated in a 37° C. cell culture incubator without medium for 10 minutes in order for the Matrigel to solidify.
8. Endothelial Growth Medium (0.5 mL) is added to each well and incubated at 37° C. with 5% CO2. Wait until the new endothelial cells have grown out of the tumor or are larger than 3 mm in diameter until treatment. This usually takes 4 days for the LL2 Lewis lung cancer model and 7 days for the CT26 colon cancer model. For human tumor models, the growth time is typically 2-3 weeks, depending on the tumor type. Media is changed every 4 days during prolonged culture. Typically, when the tumor tissue grows to 2 mm in diameter, it is good for drug testing. A size of about 3 mm in diameter can make visualization easier.
9. When the assay is ready to be analyzed for cell death (e.g., 48 hours after drug addition), prepare the dye mixture by mixing 6 μL of green dye to stain live cells (5 mg/mL Fluorescein diacetate or FDA in DMSO) with 30 μL of red dye (2.5 mg/mL Propidium iodide or PI in PBS) to stain dead cells in an Eppendorf tube. The FDA dye needs to be stored frozen in a −20° C. freezer because it has a labile ester bond.
10. Add 1 μL of the dye mixture to each well of the 24-well dish. It is usually performed one 24-well dish at a time given the amount of time needed to take pictures (the green dye is not as stable in the cells in the long term).
11. Gently rock the dish a few times to mix the dye with the media in the wells and incubate the dish at 37° C. for 10 min (too long incubation can make the green signal too intense).
12. Wash each well with 0.5 mL of sterile PBS and then add 0.5 mL of phenol red free SFM to each well. Alternatively 0.5 mL of regular Endothelial Cell Growth Media can be added to each well if this well needs to be continuously maintained after the experiment.
13. Look through all wells on an inverted microscope using the 2× objective lens to observe morphological changes.
14. Taking pictures in the red and green channels would allow not only the recording of the result but also more accurate quantitation of the result. To take pictures for all the wells, first pick a well that has robust red and green signals. […]
Work on `CCc1ccc(S(=O)(=O)c2cnc3ccc(OC(F)(F)F)cc3c2N2CCC(OCCN(CC)CC)CC2)cc1` [compound 101, N,N-diethyl-2-((1-(3-((4-ethylphenyl)sulfonyl)-6-(trifluoromethoxy)quinolin-4-yl)piperidin-4-yl)oxy)ethan-1-amine] yielded a cytotoxicity at 20 µM of 50%. Molecule `CCOC(=O)c1ccc2ncc(S(=O)(=O)c3ccc(CC)cc3)c(N3CCC(OCCN(CC)CC)CC3)c2c1` [compound 132, ethyl 4-(4-(2-(diethylamino)ethoxy)piperidin-1-yl)-3-((4-ethylphenyl)sulfonyl)quinoline-6-carboxylate] has a cytotoxicity at 40 µM of 40%. Molecule `CCc1ccc(S(=O)(=O)c2cnc3ccc(OC(F)(F)F)cc3c2N2CCC(O)(c3cccc(OC)c3)CC2)cc1` [compound 146, 1-(3-((4-ethylphenyl)sulfonyl)-6-(trifluoromethoxy)quinolin-4-yl)-4-(3-methoxyphenyl)piperidin-4-ol] has a cytotoxicity at 40 µM of 0%. For `CCOC(=O)c1ccc2ncc(S(=O)(=O)c3ccc(CC)cc3)c(N3CCC(N4CCC(O)CC4)CC3)c2c1` [compound 130, ethyl 3-((4-ethylphenyl)sulfonyl)-4-(4-hydroxy-[1,4′-bipiperidin]-1′-yl)quinoline-6-carboxylate], the cytotoxicity at 40 µM was 40%. `CCOC(=O)c1ccc2ncc(S(=O)(=O)c3ccc(OC)cc3)c(N3CCCC(O)C3)c2c1` (stereo not shown) [compound 137, ethyl 4-(3-hydroxypiperidin-1-yl)-3-((4-methoxyphenyl)sulfonyl)quinoline-6-carboxylate] showed a cytotoxicity at 40 µM of 40%. `CN1CCCN(c2c(S(=O)(=O)c3ccc([N+](=O)[O-])cc3)cnc3ccc(OC(F)(F)F)cc23)CC1` [compound 60, 4-(4-methyl-1,4-diazepan-1-yl)-3-((4-nitrophenyl)sulfonyl)-6-(trifluoromethoxy)quinoline] was tested, and the cytotoxicity at 40 µM was 5%. Work on `CCOC(=O)c1ccc2ncc(S(=O)(=O)c3ccc(CC)cc3)c(N3CCC(O)(c4cccc(OC)c4)CC3)c2c1` [compound 149, ethyl 3-((4-ethylphenyl)sulfonyl)-4-(4-hydroxy-4-(3-methoxyphenyl)piperidin-1-yl)quinoline-6-carboxylate] yielded a cytotoxicity at 40 µM of 20%. `CCc1ccc(S(=O)(=O)c2cnc3ccc(OC(F)(F)F)cc3c2N2CCC(O)(c3ccc4c(c3)OCO4)CC2)cc1` [compound 147, 4-(benzo[d][1,3]dioxol-5-yl)-1-(3-((4-ethylphenyl)sulfonyl)-6-(trifluoromethoxy)quinolin-4-yl)piperidin-4-ol] gave a cytotoxicity at 40 µM of 0%. With `CCOC(=O)c1ccc2ncc(S(=O)(=O)c3ccc(OC)cc3)c(N3CCCN(CCN(CC)CC)CC3)c2c1` [compound 139, ethyl 4-(4-(2-(diethylamino)ethyl)-1,4-diazepan-1-yl)-3-((4-methoxyphenyl)sulfonyl)quinoline-6-carboxylate] the cytotoxicity at 40 µM was 40%. For `CCCCOc1ccc2ncc(S(=O)(=O)c3ccc(OC)c(OC)c3)c(N(CC)CC)c2c1` [compound 123, 6-butoxy-3-((3,4-dimethoxyphenyl)sulfonyl)-N,N-diethylquinolin-4-amine], the cytotoxicity at 40 µM was 20%. With `CCOC(=O)c1ccc2ncc(S(=O)(=O)c3ccc(CC)cc3)c(N3CCC(O)(c4ccc(OC)cc4)CC3)c2c1` [compound 148, ethyl 3-((4-ethylphenyl)sulfonyl)-4-(4-hydroxy-4-(4-methoxyphenyl)piperidin-1-yl)quinoline-6-carboxylate] the cytotoxicity at 40 µM was 0%. `CCOC(=O)c1ccc2ncc(S(=O)(=O)c3ccc(CC)cc3)c(N3CCCC(O)C3)c2c1` (stereo not shown) [compound 135, ethyl 3-((4-ethylphenyl)sulfonyl)-4-(3-hydroxypiperidin-1-yl)quinoline-6-carboxylate] was tested, and the cytotoxicity at 40 µM was 30%. `CCOC(=O)c1ccc2ncc(S(=O)(=O)c3ccc(CC)cc3)c(N3CCC(O)(c4ccc(CC)cc4)CC3)c2c1` [compound 128, ethyl 4-(4-(4-ethylphenyl)-4-hydroxypiperidin-1-yl)-3-((4-ethylphenyl)sulfonyl)quinoline-6-carboxylate] gave a cytotoxicity at 40 µM of 10%. In the case of `CCOC(=O)c1ccc2ncc(S(=O)(=O)c3ccc(CC)cc3)c(N3CCCN(CCN(CC)CC)CC3)c2c1` [compound 131, ethyl 4-(4-(2-(diethylamino)ethyl)-1,4-diazepan-1-yl)-3-((4-ethylphenyl)sulfonyl)quinoline-6-carboxylate], the cytotoxicity at 40 µM is reported as 50%. `CCCCN(CCCC)c1c(S(=O)(=O)c2ccc(OC)c(OC)c2)cnc2ccc(SC)cc12` [compound 124, N,N-dibutyl-3-((3,4-dimethoxyphenyl)sulfonyl)-6-(methylthio)quinolin-4-amine] showed a cytotoxicity at 40 µM of 20%. `CCOC(=O)c1ccc2ncc(S(=O)(=O)c3ccc(OC)cc3)c(N3CCC(N4CCC(O)CC4)CC3)c2c1` [compound 138, ethyl 4-(4-hydroxy-[1,4′-bipiperidin]-1′-yl)-3-((4-methoxyphenyl)sulfonyl)quinoline-6-carboxylate] gave a cytotoxicity at 40 µM of 20%. Work on `CCCCOc1ccc(S(=O)(=O)c2cnc3ccc(SC)cc3c2N2CCCN(CCN3CCCC3)CC2)cc1` [compound 207, 3-((4-butoxyphenyl)sulfonyl)-6-(methylthio)-4-(4-(2-(pyrrolidin-1-yl)ethyl)-1,4-diazepan-1-yl)quinoline] yielded a cytotoxicity at 40 µM of 100%. Work on `CCc1ccc(C2(O)CCN(c3c(S(=O)(=O)c4ccc(OC)cc4)cnc4ccc(OC(F)(F)F)cc34)CC2)cc1` [compound 129, 4-(4-ethylphenyl)-1-(3-((4-methoxyphenyl)sulfonyl)-6-(trifluoromethoxy)quinolin-4-yl)piperidin-4-ol] yielded a cytotoxicity at 40 µM of 0%. With `COc1ccc(S(=O)(=O)c2cnc3ccc(OC(F)(F)F)cc3c2N2CCC(O)(c3cccc(OC)c3)CC2)cc1` [compound 150, 4-(3-methoxyphenyl)-1-(3-((4-methoxyphenyl)sulfonyl)-6-(trifluoromethoxy)quinolin-4-yl)piperidin-4-ol] the cytotoxicity at 40 µM was 10%. For `CCOC(=O)c1ccc2ncc(S(=O)(=O)c3ccc(OC)cc3)c(N3CCCN(C)CC3)c2c1` [compound 144, ethyl 3-((4-methoxyphenyl)sulfonyl)-4-(4-methyl-1,4-diazepan-1-yl)quinoline-6-carboxylate], the cytotoxicity at 40 µM was 30%. `CCOC(=O)c1ccc2ncc(S(=O)(=O)c3ccc(OC)cc3)c(N3CCC(OCCN(CC)CC)CC3)c2c1` [compound 140, ethyl 4-(4-(2-(diethylamino)ethoxy)piperidin-1-yl)-3-((4-methoxyphenyl)sulfonyl)quinoline-6-carboxylate] showed a cytotoxicity at 40 µM of 60%. Molecule `CCc1ccc(S(=O)(=O)c2cnc3ccc(OC(F)(F)F)cc3c2N2CCC(O)(c3ccc(OC)cc3)CC2)cc1` [compound 145, 1-(3-((4-ethylphenyl)sulfonyl)-6-(trifluoromethoxy)quinolin-4-yl)-4-(4-methoxyphenyl)piperidin-4-ol] has a cytotoxicity at 40 µM of 30%. With `CCOC(=O)c1ccc2ncc(S(=O)(=O)c3ccc(OC)cc3)c(N3CCC(N4CCCCC4)CC3)c2c1` [compound 136, ethyl 4-([1,4′-bipiperidin]-1′-yl)-3-((4-methoxyphenyl)sulfonyl)quinoline-6-carboxylate] the cytotoxicity at 40 µM was 30%. `COc1ccc(S(=O)(=O)c2cnc3ccc(SC)cc3c2N2CCC(N3CCC(O)CC3)CC2)cc1OC` [compound 153, 1′-(3-((3,4-dimethoxyphenyl)sulfonyl)-6-(methylthio)quinolin-4-yl)-[1,4′-bipiperidin]-4-ol] was tested, and the cytotoxicity at 40 µM was 20%.

Each molecule was assayed on tumor endothelial cells (LL/2 lung cancer tumor) (assay: Lung LL2 ex vivo model of tumor angiogenesis). Settings: Lung LL2 ex vivo; Conc. 20 μm; drug treatment two days.
Format: cell-based, mouse
Procedure, shortened: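 Read-out is live/dead fluorescence imaging (fluorescein diacetate green, propidium iodide red, 10 min at 37° C) at 2×, taken e.g. 48 h after drug addition. Fragments of mouse LL2 tumor are cultured in Matrigel with endothelial growth medium, usually 4 days, until new endothelial cells grow out, then treated.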
`CCc1ccc(S(=O)(=O)c2cnc3ccc(OC(F)(F)F)cc3c2N2CCC(OCCN(CC)CC)CC2)cc1` [compound 101, N,N-diethyl-2-((1-(3-((4-ethylphenyl)sulfonyl)-6-(trifluoromethoxy)quinolin-4-yl)piperidin-4-yl)oxy)ethan-1-amine] showed a Cell death of 100%.

Source: patent publication US11884647B2, “Compounds and methods for targeting pathogenic blood vessels” (THE REGENTS OF THE UNIVERSITY OF CALIFORNIA, priority 2019, dated 2024)
